How the values were obtained:
[1] = system: maize pollen; assay: Protective compounds: prevention of pollen bursting on germination media; format: cell-based; settings: loose pollen soaked 20 minutes, compared with fresh pollen without protection
Protocol: In this example, various putative protective compounds were evaluated for their efficacy in preventing pollen from bursting on germination media. Nine different chemical treatments were applied to loose pollen shed from maize plants. Pollen was soaked in chemical solution for 20 minutes and then placed on media to observe the impact on pollen viability and compared with fresh pollen without protection as control.

[2] = system: maize pollen; assay: Pollen tube formation with germination media comprising surfactant; format: cell-based; settings: surfactant at both 0.01% and 0.1% in germination media, pollen stored 1° C. for a day, within two hours
Protocol: Maize pollen was stored in 326C media with 1000 mM Sucrose and 500 mM Betaine at a pH of 9.0. Pollen was stored at 1° C. for a day. After this time period, germination medias comprising surfactant were added in amounts up to five times the volume of storage media. Surfactant conditions tested were 0.1% Tween 20, 0.01% Tween 20, 0.1% Pluronic F68, and 0.01% Pluronic F68 (final concentration). Pollen was observed microscopically prior to replacement of media and two hours after replacement. Pluronic F68, also known as poloxamer 188, is a non-ionic surfactant, a member of a class of polaxamers comprising non-ionic triblock copolymers composed of a central hydrophobic chain of polyoxypropylene flanked by two hydrophilic chains of polyoxyethylene.

Compound | Preventing pollen from bursting on germination media [1] | Pollen tube formation [2]
C[S+](C)[O-] [5% DMSO, DMSO] | did not prevent pollen from bursting | –
Tween 20 | – | lysis but no pollen tube formation
